Experimental data published in PMC10056443, “Derivatives of Amaryllidaceae Alkaloid Ambelline as Selective Inhibitors of Hepatic Stage of Plasmodium berghei Infection In Vitro” (Pharmaceutics, 2023).
Where two headings read alike, the source gives them in different places.

Experiments:
Plasmodium = system: Plasmodium; parameters: method as in PMID 29243039; settings: tested previously, cited from earlier work
[1] = system: resistant Dd2 P. falciparum strain; settings: cited from earlier work
[2] = system: hepatic stage of P. berghei; assay: In vitro activity against P. berghei hepatic stages (luciferase-expressing sporozoites in Huh-7 cells, bioluminescence); type: cell-based, Plasmodium berghei; parameters: INFECTION (IC50 determination): unit not given here; settings: for IC50 / activity at 1 µM / activity at 10 µM: Plasmodium berghei; for activity against P. berghei hepatic stages: screening at 10 and 1 µM / IC50 determination; for activity at 1 µM / activity at 10 µM / INFECTION (IC50 determination): DMSO = 100; for activity at 1 µM / activity at 10 µM: read-out: INFECTION Ø screening
Summary of the method: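 Huh-7 hepatoma cells pretreated with compounds 1 h, then infected with luciferase-expressing P. berghei sporozoites (1 × 10^4/well, 1:1 ratio) and incubated at 37 °C.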

HepG2 cells = assay: Cytotoxicity assessment in vitro (MTT assay); type: cell-based
Summary of the method: (§1)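 Human HepG2 hepatocellular carcinoma cells (passage 20–25) were treated with compound at 10 μM in triplicate for 24 h at 37 °C, 5% CO2. Viability was then measured by MTT: 3 h incubation, formazan dissolved in DMSO, absorbance read at 570 nm.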

[3] = Cytotoxicity assessment in vitro (MTT assay); type: cell-based; settings: human
Summary of the method: as §1

[4] = system: P. falciparum NF54 ring-stage synchronized cultures; assay: In vitro activity against P. falciparum blood stages (flow cytometry, SYBR green I); type: cell-based, Plasmodium falciparum; settings: Control = 7.76333, 48 h
Description: Activity against the blood stage of P. falciparum infection was assessed by flow cytometry analysis following the incubation of either test compounds or the drug vehicle (DMSO) with ring-stage synchronized parasite cultures, as previously described. Stock solutions of the test compounds, as well as of the positive control compound chloroquine, were prepared in DMSO and diluted to test concentrations in complete malaria culture medium (CMCM), i.e., 1640 RPMI medium supplemented with 25 mM HEPES, 2.4 mM L-glutamine, 50 µg/mL gentamicin, 0.5% w/v Albumax, 11 mM glucose, 1.47 mM hypoxanthine, and 37.3 mM NaHCO3. Samples at tested concentration were then incubated with ring-stage synchronized cultures of P. falciparum NF54 at 2.5% hematocrit and at approximately 1% parasitemia in 96-well plates at 37 °C in a 5% CO2 and 5% O2 atmosphere. Forty-eight hours post incubation, parasite load was assessed by flow cytometry, upon staining with the DNA-specific dye SYBR green I. Approximately 100,000 events were analyzed in each flow cytometry measurement.

Huh-7 cell line = assay: Huh-7 cell confluency by alamarBlue assay during hepatic-stage test; type: cell-based; settings: for CELL CONFLUENCY Ø screening / CELL CONFLUENCY (IC50 determination): human, 46 h, pH 7
Summary of the method: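 Huh-7 human hepatoma cells pre-treated with compound in infection medium 1 h before luciferase-expressing P. berghei sporozoites were added (1:1, 1 × 10^4 per well), then incubated 46 h at 37 °C, 5% CO2. Confluency assessed indirectly by alamarBlue; IC50 from nonlinear-regression fit of normalized dose-response curves.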

[5] = Huh-7, mean, unit (Table 1: µM), read-out: Antiplasmodial activity - Ø IC50
[6] = Huh-7, replicate 1, unit (Table 1: µM), read-out: Antiplasmodial activity - IC50 determination, 1. measurement
[7] = Huh-7, replicate 2, unit (Table 1: µM), read-out: Antiplasmodial activity - IC50 determination, 2. measurement
[8] = Huh-7, replicate 3, unit (Table 1: µM), read-out: Antiplasmodial activity - IC50 determination, 3. measurement
[9] = hepatic stage, Huh-7 cells, parasite load 48 h post-infection, read-out: IC50 P. berghei

Structure (SMILES)	Ø screening, blood stage parasite load ([4]; at 10 nM)	Ø screening, blood stage parasite load ([4]; at 500 nM)	Ø screening, blood stage parasite load ([4]; at 100 nm)	activity at 1 µM ([2]; Huh-7, 48 h) [%]	activity at 10 µM ([2]; Huh-7, 48 h) [%]	IC50 [2, 5] [µM]	IC50 [2, 6] [µM]	IC50 [2, 7] [µM]	IC50 [2, 8] [µM]	IC50 [2, 9] [µM]	1. screening of cytotoxic potential, HepG2 cell line (HepG2 cells; human, 24 h, 10 µM)	2. screening of cytotoxic potential, HepG2 cell line (HepG2 cells; human, 24 h, 10 µM)	3. screening of cytotoxic potential, HepG2 cell line (HepG2 cells; human, 24 h, 10 µM)	Ø screening, HepG2 (sheet Graphs) (HepG2 cells; human, 24 h, 10 µM)	viability at 24 h, 10 µM [3] [%]	CELL CONFLUENCY Ø screening (Huh-7 cell line; 1 µM)	CELL CONFLUENCY Ø screening (Huh-7 cell line; 10 µM)	other results
COC1C=CC23c4cc5c(cc4CN(CC2O)C3C1)OCO5 (centres unmarked) [compound 29, haemanthamine]	–	–	–	–	–	–	–	–	–	–	–	–	–	–	–	–	–	antiplasmodial effect (words) (Plasmodium): without notable activity; antiplasmodial effect (words) (Plasmodium; listed as haemanthamine): neither haemanthamine nor ambelline showed inhibition
COc1c2c(cc3c1OCO3)[C@]13C=C[C@H](OC)C[C@H]1N(C2)C[C@@H]3O [compound 28, ambelline]	–	–	–	–	–	–	–	–	–	–	–	–	–	–	–	–	–	IC50 [1]: 7300 ± 300 nM; IC50 ([2]; Huh-7, 48 h, read-out: IC50 P. berghei): > 10 µM; activity against P. berghei hepatic stages [2]: neither haemanthamine nor ambelline showed inhibition; Ø screening, HepG2 (sheet Graphs) (HepG2 cells; c = 10 μM, DMSO = 100, in %): 49.86; 1. screening of cytotoxic potential, HepG2 cell line (HepG2 cells; c = 10 μM, replicate 1, in %): 49.93; 2. screening of cytotoxic potential, HepG2 cell line (HepG2 cells; c = 10 μM, replicate 2, in %): 48.36; 3. screening of cytotoxic potential, HepG2 cell line (HepG2 cells; c = 10 μM, replicate 3, in %): 51.3; viability at 24 h, 10 µM ([3]; c = 10 µM, 24 h, MTT, read-out: HepG2 % of cell viability compared to non-treated control (100%)): 50 ± 1%
COc1c2c(cc3c1OCO3)[C@]13C=C[C@H](OC)C[C@H]1N(C2)C[C@H]3OC(=O)c1ccccc1 [28e, 11-O-Benzoylambelline]	7.597	7.383	7.907	45.7	2.18	0.726	0.662	0.646	0.871	0.726 ± 0.126	98.77	99.24	87.15	95.05	95 ± 7	94.15	86.56	–
COc1c2c(cc3c1OCO3)[C@]13C=C[C@H](OC)C[C@H]1N(C2)C[C@H]3OC(=O)C(C)C [28c, 11-O-Isobutanoylambelline]	7.643	7.21	8.26	89.1	59.8	–	15.5	14.4	–	> 10	97.78	100.15	88.22	95.38	95 ± 6	94.69	93.64	–
COc1c2c(cc3c1OCO3)[C@]13C=C[C@H](OC)C[C@H]1N(C2)C[C@H]3OC(=O)c1ccc(C)c([N+](=O)[O-])c1 [28r, 11-O-(4-Methyl-3-nitrobenzoyl)ambelline]	8.177	7.467	7.743	22.2	1.01	0.41	0.358	0.408	0.465	0.41 ± 0.054	69.43	55.1	69.8	64.78	65 ± 8	94.75	52.08	–
COc1cc(OC)cc(C(=O)O[C@@H]2CN3Cc4c(cc5c(c4OC)OCO5)[C@@]24C=C[C@H](OC)C[C@@H]34)c1 [28m, 11-O-(3,5-Dimethoxybenzoyl)ambelline]	7.527	6.707	7.237	4.97	0.465	0.0483	0.0413	0.0646	0.0389	0.048 ± 0.014	83.99	94	84.39	87.46	87 ± 6	75.47	66.23	INFECTION (IC50 determination) ([2]; at 0.0001 µM): 91.9843; INFECTION (IC50 determination) ([2]; at 0.001 µM): 94.6285; INFECTION (IC50 determination) ([2]; at 0.01 µM): 82.6124; INFECTION (IC50 determination) ([2]; at 0.05 µM): 46.9733; INFECTION (IC50 determination) ([2]; at 0.1 µM): 24.6613; INFECTION (IC50 determination) ([2]; at 0.5 µM): 8.963; Huh-7 cell viability (Huh-7 cell line): cell viability was not affected at antiplasmodial-active concentrations; CELL CONFLUENCY (IC50 determination) (Huh-7 cell line; 0.0001 µM): 108.569; CELL CONFLUENCY (IC50 determination) (Huh-7 cell line; 0.001 µM): 114.348; CELL CONFLUENCY (IC50 determination) (Huh-7 cell line; 0.01 µM): 105.456; CELL CONFLUENCY (IC50 determination) (Huh-7 cell line; 0.05 µM): 107.735; CELL CONFLUENCY (IC50 determination) (Huh-7 cell line; 0.1 µM): 107.6; CELL CONFLUENCY (IC50 determination) (Huh-7 cell line; 0.5 µM): 97.6188
COc1c2c(cc3c1OCO3)[C@]13C=C[C@H](OC)C[C@H]1N(C2)C[C@H]3OC(=O)c1ccc(Cl)c([N+](=O)[O-])c1 [28t, 11-O-(4-Chloro-3-nitrobenzoyl)ambelline]	7.33	7.613	7.113	114	92.6	–	–	–	–	–	13.64	17.76	14.19	15.2	15 ± 2	96.94	92.83	activity against P. berghei hepatic stages [2]: not dose-dependent
CC(=O)O[C@@H]1CC=C2CCN3Cc4cc5c(cc4[C@H]1[C@@H]23)OCO5 [compound 5, acetylcaranine]	–	–	–	–	–	–	–	–	–	–	–	–	–	–	–	–	–	IC50 [1]: 3500 ± 300 nM
COc1c2c(cc3c1OCO3)[C@]13C=C[C@H](OC)C[C@H]1N(C2)C[C@H]3OC(=O)c1ccc([N+](=O)[O-])cc1 [28q, 11-O-(4-Nitrobenzoyl)ambelline]	6.94	4.487	4.835	64.6	3.9	1.2	1.17	1.03	1.39	1.2 ± 0.18	48.34	59.99	49.2	52.51	53 ± 6	102	102.2	–
CCCCC(=O)O[C@@H]1CN2Cc3c(cc4c(c3OC)OCO4)[C@@]13C=C[C@H](OC)C[C@@H]23 [28d, 11-O-Pentanoylambelline]	6.99	6.78	7.043	93.9	25.2	4.08	5.65	2.14	4.44	4.08 ± 1.78	73.78	63.13	76.88	71.26	71 ± 7	95.31	93.14	–
